The values that follow come from patent US8962637B2, “Bicyclic compounds and their uses as dual c-SRC/JAK inhibitors” (Debiopharm S.A., priority 2010, dated 2015).

For one data set, the target named is JAK2 (Homo sapiens (Human), UniProt O60674). Put plainly: TR-FRET JAK2 kinase assay. The class given is biochemical. As to conditions: ATP 10 μM. Here is the method:
(§1) Compounds were screened in the TR-FRET assay for JAK2 and c-Src kinase inhibition. Ultra light poly GT (Perkin Elmer) was used as the substrate for JAK2 and c-Src with the ATP concentration of 10 μM and 50 μM, respectively. […] The dose-response curve fitting was done using GraphPad Prism software.
For orientation: TR-FRET usually uses a lanthanide donor and a delayed reading to cut background.

In another data set the target is c-Src (Homo sapiens (Human), UniProt P12931). Put plainly: TR-FRET c-Src kinase assay. The class given is biochemical. Particulars: ATP 50 μM; for inhibition at 0.1 µM: read-out: c-SRC % inhibition at 100 nM, 100 nM; for inhibition at 1 µM: read-out: c-SRC % inhibition at 1 μM. As for the experimental part:
as §1

For the next data set, the target named is JAK1 (Homo sapiens (Human), UniProt P23458). Put plainly: JAK1 kinase inhibition. The data set is classed as biochemical.
A further data set relates to Mda-Mb-231 cells. Put plainly: Cell viability assay (XTT assay), Mda-Mb-231. The class given is cell-based. Particulars: Homo sapiens, 72 hrs. An outline of the steps:
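MDA-MB-231 cells seeded and dosed next day in triplicate, incubated 72 h. Medium replaced with XTT working solution for 2-5 h, absorbance read at 465 nm, and EC50 values derived from the readings.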
(Tetrazolium assays rely on reduction of a dye to a coloured formazan, in cell work by metabolically active cells.)

The subject of data set [1] is B16F10 tumor cells. Put plainly: B16F10 metastasis model. The class given is in vivo, C57B16 mice. Particulars: for % metastasis inhib.: Efficacy - B16F10 at 100 MPK; for Metastasis Inhibition: B16F10 model. As for the experimental part:
(§2) IV injection of 0.1×10^6 B16F10 tumor cells in the tail vain of 60 male C57B16 mice. Randomization of mice one day after tumor cell injection into 4 groups of 15 mice. Out of 15, 6 mice were sacrificed on 14th day for counting metastatic foci on lungs. Rest 9 mice were dosed continuously till morbidity/mortality for recording survival.
(§3) Formulation: 20% HPC, 2% ethanol solution in PBS for the compound No. 45
(§4) Plasma collected for drug concentration estimation and whole blood was collected to isolate PBMCs to determine pStat3 inhibition by flow cytometry as PD readout.

Data set [2] concerns B16F10 tumor cells. Put plainly: B16F10 survival model. The data set is classed as in vivo, C57B16 mice. As for the experimental part:
as §2, §4

The next data set concerns A431 tumor cells. Put plainly: A431 xenograft model. The class given is in vivo, athymic nude mice. Particulars: for TGI: Efficacy - A431 at 100 MPK. As for the experimental part:
SC injection of 5×10^6 A431 tumor cells with Matrigel® on the left flank of 24 female athymic nude mice. Randomization of mice 14 days after tumor cell injection into 3 groups of 8 mice each with a mean tumor volume of 90±1 mm3.
as §3
• Normal saline for Gefitinib® Dosing route: Oral for the compound No. 45 and Gefitinib® Dose Volume: 10 mL/Kg body weight Dosing schedule: Once daily for 14 consecutive days (Q1Dx14) PK-PD experiment in A431 model: Tumors were allowed to grow to 250 mm^3 size. Compounds were dosed once and PBMCs and tumors were collected at Tmax for pStat3 estimation. Plasma was also collected to estimate drug concentration estimation. Efficacy experiment in A431 model: Dosage: • Group1. Vehicle control • Group2. Compound No. 45—150 MPK • Group3. […] Plasma collected for drug concentration estimation and whole blood was collected to isolate PBMCs to determine pStat3 inhibition by flow cytometry as PD readout. Tumors were snap frozen in liquid nitrogen and stored at −80° C. to estimate pStat3 by flow cytometry as PD readout Determination of Plasma Drug Concentration: […]

Data set [3] concerns pStat3. Put plainly: Quantification of pStat3 in PBMCs by flow cytometry. The class given is in vivo, mice. As for the experimental part:
Phosphorylation of Stat3 was stimulated by addition of hIL6 (10 ug/mL) for 30 min at 37° C. Blood was fixed with formaldehyde (final 2% v/v) for 10 min at 37° C.
Buffy coat (PBMCs) was separated by aspirating translucent layer using pipetteman and washed twice with PBS-1×
Pre chilled PBMC's were permeabilized by adding ice cold Methanol, while vortexing gently (final volume 90% MeOH v/v) and incubated for 30 min on ice.
Permeabilized PBMCs were washed with PBS once. PBMCs re-suspended to 2×10^6 cells in 200 μL of incubation buffer for 10 min at room temperature (RT). Primary Ab was added (1:100 dilution) and incubated 45 min at RT. Washed as before (twice) and re-suspended in fluorochrome conjugated secondary Ab (1:500 dilution) and incubated at RT in dark for 30 min. Washed and re-suspended in […] PBS.
(§5) Measured pStat3 using FACS caliber machine (BD). Unstained PBMCs was used for cytometry settings. […] Histograms (cell number V/s FL1-H) were plotted. Percentage of cells that are phosphorylated by IL6 stimulation (M2 population), and inhibition of phosphorylation by inhibitor (decrease in M2 population) are calculated on histogram by marking peaks, M1 and M2.
In general terms: In flow cytometry, cells or beads pass a laser one at a time.

In data set [4] the test system is pStat3. Put plainly: Quantification of pStat3 in tumors by flow cytometry. The class given is in vivo, mice. Here is the method:
as §5
Separate the tumour & 200 mg of tumour was crashed (45 mg per ml) by using IKA 10 at Speed #4 for 10 seconds. Sieve the tumour extract through 100 u, centrifuge at 900 g for 10 min. Re-suspend cells briefly in 0.5-1 ml PBS. Add formaldehyde to a final concentration of 2-4% formaldehyde. Fix for 10 minutes at 37° C. Chill tubes on ice for 1 minute.
Permeabilize cells by adding ice-cold 100% methanol slowly to pre-chilled cells, while gently vortexing, to a final concentration of 90% methanol. Alternatively, to remove fix prior to permeabilization, pellet cells by centrifugation and re-suspend in 90% methanol. Incubate 30 minutes on ice. Proceed with staining or store cells at −20° C. in 90% methanol. Aliquot 0.5-1×10^6 cells into each assay tube (by volume). Add 2-3 ml Incubation Buffer to each tube and rinse by centrifugation. Repeat. Re-suspend cells in 100 μl Incubation Buffer per assay tube. Analyze by flow cytometry like PBMCs.

The conditions of data set [5]: mouse, in vivo.

Chain of c-Src (P12931 whole entry, looked up): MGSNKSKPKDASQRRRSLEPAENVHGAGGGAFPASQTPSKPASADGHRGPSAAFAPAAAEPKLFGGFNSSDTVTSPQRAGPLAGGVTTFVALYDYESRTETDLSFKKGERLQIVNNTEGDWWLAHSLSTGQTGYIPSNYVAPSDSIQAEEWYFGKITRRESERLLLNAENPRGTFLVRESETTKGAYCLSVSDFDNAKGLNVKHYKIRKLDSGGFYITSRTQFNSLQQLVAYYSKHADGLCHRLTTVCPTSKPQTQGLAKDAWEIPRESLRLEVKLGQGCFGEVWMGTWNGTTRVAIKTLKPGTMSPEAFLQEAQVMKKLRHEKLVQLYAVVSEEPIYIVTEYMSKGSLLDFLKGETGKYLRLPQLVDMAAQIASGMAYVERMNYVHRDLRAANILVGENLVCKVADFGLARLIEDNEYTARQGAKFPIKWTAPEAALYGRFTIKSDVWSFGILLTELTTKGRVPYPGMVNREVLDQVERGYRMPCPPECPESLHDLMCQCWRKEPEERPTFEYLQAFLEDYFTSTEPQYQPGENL
Chain of JAK1 (P23458 whole entry): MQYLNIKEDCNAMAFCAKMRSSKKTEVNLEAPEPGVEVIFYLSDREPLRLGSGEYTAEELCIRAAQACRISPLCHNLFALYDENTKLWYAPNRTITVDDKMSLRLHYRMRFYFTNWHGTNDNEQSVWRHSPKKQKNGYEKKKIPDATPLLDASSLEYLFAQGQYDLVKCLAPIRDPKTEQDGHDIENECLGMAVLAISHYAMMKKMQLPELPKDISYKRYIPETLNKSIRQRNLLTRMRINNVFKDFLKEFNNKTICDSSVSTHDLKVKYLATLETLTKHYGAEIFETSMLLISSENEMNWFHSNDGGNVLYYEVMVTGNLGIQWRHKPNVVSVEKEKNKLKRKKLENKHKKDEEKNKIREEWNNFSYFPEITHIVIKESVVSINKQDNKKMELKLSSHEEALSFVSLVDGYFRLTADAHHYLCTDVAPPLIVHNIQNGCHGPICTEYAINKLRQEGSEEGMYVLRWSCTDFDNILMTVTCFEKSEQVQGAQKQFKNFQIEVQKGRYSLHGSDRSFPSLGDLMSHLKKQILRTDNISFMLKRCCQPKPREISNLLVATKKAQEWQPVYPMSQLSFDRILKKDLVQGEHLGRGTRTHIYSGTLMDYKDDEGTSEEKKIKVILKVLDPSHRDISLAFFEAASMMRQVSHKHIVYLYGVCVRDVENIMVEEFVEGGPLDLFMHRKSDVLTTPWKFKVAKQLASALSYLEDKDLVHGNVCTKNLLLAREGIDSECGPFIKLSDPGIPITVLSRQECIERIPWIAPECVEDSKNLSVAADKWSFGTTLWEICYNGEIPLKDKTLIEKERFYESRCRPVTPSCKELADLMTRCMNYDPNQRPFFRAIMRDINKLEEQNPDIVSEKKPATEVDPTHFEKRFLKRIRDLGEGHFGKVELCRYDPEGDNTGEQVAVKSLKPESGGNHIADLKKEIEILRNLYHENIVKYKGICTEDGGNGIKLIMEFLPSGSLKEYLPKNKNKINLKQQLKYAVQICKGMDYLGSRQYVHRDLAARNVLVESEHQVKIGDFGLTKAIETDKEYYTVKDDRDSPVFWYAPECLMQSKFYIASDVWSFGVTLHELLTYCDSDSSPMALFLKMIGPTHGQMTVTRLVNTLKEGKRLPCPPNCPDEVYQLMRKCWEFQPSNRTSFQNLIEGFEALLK
Chain of JAK2 (O60674 whole entry): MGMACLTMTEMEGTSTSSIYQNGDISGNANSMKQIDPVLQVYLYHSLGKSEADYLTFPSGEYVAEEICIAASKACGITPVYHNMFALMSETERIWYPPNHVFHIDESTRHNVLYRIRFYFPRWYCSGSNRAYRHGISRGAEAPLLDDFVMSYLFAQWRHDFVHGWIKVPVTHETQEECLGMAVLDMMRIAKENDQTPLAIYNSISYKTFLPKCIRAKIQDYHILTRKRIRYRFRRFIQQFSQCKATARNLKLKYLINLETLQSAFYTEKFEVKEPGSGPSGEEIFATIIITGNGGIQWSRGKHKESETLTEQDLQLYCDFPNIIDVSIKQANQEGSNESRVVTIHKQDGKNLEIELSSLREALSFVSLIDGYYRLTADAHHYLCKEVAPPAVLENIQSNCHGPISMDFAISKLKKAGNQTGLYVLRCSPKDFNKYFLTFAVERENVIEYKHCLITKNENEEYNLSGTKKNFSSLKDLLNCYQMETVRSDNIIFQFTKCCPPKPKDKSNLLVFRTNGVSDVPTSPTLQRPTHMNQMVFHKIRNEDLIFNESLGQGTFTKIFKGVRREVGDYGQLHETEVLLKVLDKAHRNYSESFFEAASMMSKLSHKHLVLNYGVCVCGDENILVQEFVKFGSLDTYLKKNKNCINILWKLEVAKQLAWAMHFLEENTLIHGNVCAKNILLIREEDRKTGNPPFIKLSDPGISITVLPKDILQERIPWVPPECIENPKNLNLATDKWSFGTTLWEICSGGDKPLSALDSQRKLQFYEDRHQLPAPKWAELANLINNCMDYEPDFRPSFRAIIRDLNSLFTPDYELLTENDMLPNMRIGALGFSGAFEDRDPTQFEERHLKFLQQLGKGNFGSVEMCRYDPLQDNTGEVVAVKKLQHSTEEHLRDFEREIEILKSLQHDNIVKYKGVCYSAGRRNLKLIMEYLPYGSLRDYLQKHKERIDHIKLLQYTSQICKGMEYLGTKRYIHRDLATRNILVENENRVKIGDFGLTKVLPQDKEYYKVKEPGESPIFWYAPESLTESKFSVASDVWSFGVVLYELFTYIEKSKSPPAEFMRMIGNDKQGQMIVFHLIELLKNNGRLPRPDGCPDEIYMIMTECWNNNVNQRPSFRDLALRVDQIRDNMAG

Usually IC50 stands for the concentration that inhibits the measured activity by half. Usually inhibition stands for the percentage by which the read-out fell short of the control. What is called EC50 is the concentration that produces a half-maximal response. A word on the TGI: it is the reduction of tumour growth relative to the control group. Read a low TGI as little slowing of growth. On to `Cc1ccc(NC(=O)c2cccc(C(F)(F)F)c2)cc1N1CCc2nc(Nc3ccc(C(=O)NC4CC4)nc3)ncc2C1` [Compound 117, 5-{6-[2-Methyl-5-(3-trifluoromethyl-benzoylamino)-phenyl]-5,6,7,8-tetrahydro-pyrido[4,3-d]pyrimidin-2-ylamino}-pyridine-2-carboxylic acid cyclopropylamide], for which the results for the concentration for half-maximal inhibition (IC50) against JAK2 and on JAK1 were 18 nM and 24 nM, respectively. Also, the inhibition at 0.1 µM at c-Src is 80%. Further, the inhibition at 1 µM on c-Src is 96%. Besides, in the data set with Mda-Mb-231 cells, a half-maximal response (EC50) required 660 nM. For the same compound, the “% metastasis inhib.” value in the data set on B16F10 tumor cells [1] was 26%. In addition, the Survival advantage with B16F10 tumor cells [2] (Efficacy - B16F10 at 100 MPK) was determined as 1 day days. In addition, in the data set with A431 tumor cells, the TGI is 54%. Further, in the data set on pStat3 [3] (at 100 MPK), the “% pSTAT3 inhibition in PBMCs (MTD study)” value came to 83% at. Besides, the “% pSTAT3 inhib. (tumour)” value in the data set with pStat3 [4] (Efficacy - A431 at 100 MPK) is listed as 10%; with pStat3 [4] (Efficacy - A549, at 100 MPK) it was 47% at. For the same compound, in data set [5], the MTD is on record as 100 MPK.
As for `CNC(=O)c1ccc(Nc2ncc3c(n2)CCN(c2cc(NC(=O)c4cc(C(F)(F)F)ccn4)ccc2Cl)C3)cc1` [Compound 179, 4-Trifluoromethyl-pyridine-2-carboxylic acid {4-chloro-3-[2-(4-methylcarbamoyl-phenylamino)-7,8-dihydro-5H-pyrido[4,3-d]pyrimidin-6-yl]-phenyl}-amide], the IC50 at JAK2 worked out at 6.4 nM; against c-Src, 15 nM; against JAK1, 12 nM. For the same compound, the inhibition at 0.1 µM on JAK2 (read-out: JAK2 % inhibition at 100 nM, 100 nM) is 81%; at c-Src it was 79%. Besides, the inhibition at 1 µM at JAK2 (read-out: JAK2 % inhibition at 1 μM, 1 μM) was determined as 92%; on c-Src, 93%. In the data set with Mda-Mb-231 cells, this compound came in with an EC50 of 900 nM. The “% metastasis inhib.” value in the data set on B16F10 tumor cells [1] came to 47%. In the data set with B16F10 tumor cells [2] (Efficacy - B16F10 at 100 MPK), this compound showed a Survival advantage of 4 days. In the data set with A431 tumor cells, this compound came in with a TGI of 67%. Besides, the “% pSTAT3 inhibition in PBMCs (MTD study)” value in the data set on pStat3 [3] (at 30 MPK) is 65% at. The “% pSTAT3 inhib. (tumour)” value with pStat3 [4] (Efficacy - A431 at 100 MPK) was found to be 54%; in the data set with pStat3 [4] (Efficacy - A549, at 30 MPK) it was 79% at. The compound also gave an MTD in data set [5] of 30 MPK.
As to `Cc1ccc(NC(=O)c2cccc(C(F)(F)F)c2)cc1N1CCc2nc(Nc3ccc(N4CCN(C)CC4)cc3)ncc2C1=O` [Compound 45, N-(4-Methyl-3-{2-[4-(4-methyl-piperazin-1-yl)-phenylamino]-5-oxo-7,8-dihydro-5H-pyrido[4,3-d]pyrimidin-6-yl}-phenyl)-3-trifluoromethyl-benzamide], the IC50 is 15 nM against JAK2, 10 nM against c-Src and 116 nM on JAK1. Also, the inhibition at 0.1 µM at JAK1 (read-out: JAK1 % inhibition at 100 nM) is 56%. For the same compound, the inhibition at 1 µM at JAK1 (read-out: JAK1 % inhibition at 1 μM) worked out at 82%. For the same compound, a half-maximal effect with Mda-Mb-231 cells (EC50) was put at 1830 nM. In addition, in the data set with B16F10 tumor cells [1] (B16F10 metastasis model), the anti-tumor activity entry is “good anti-tumor activity”. In addition, in the data set with B16F10 tumor cells [1] (B16F10 metastasis model, 100 MPK, Q1Dx14), the “reduction in metastatic counts on lungs” value was found to be 75%. Besides, the figures for the “Metastasis Inhibition” value with B16F10 tumor cells [1] (30 MPK) and with B16F10 tumor cells [1] (100 MPK) were 73% and 75%, respectively. The “% metastasis inhib.” value in the data set on B16F10 tumor cells [1] was determined as 75%. For the same compound, the Survival advantage in the data set on B16F10 tumor cells [2] (B16F10 survival model, dosing Q1Dx14) is given as 37.5%; with B16F10 tumor cells [2] (Efficacy - B16F10 at 100 MPK) it was 9 days. Moreover, the “% TGI” value in the data set with A431 tumor cells (A431 Xenograft model, 100 MPK) is listed as 52.55%. In the data set with A431 tumor cells, this compound came in with a TGI of 48%. The “PBMCs % pStat3 inhibition” value is on record as 56.32% with pStat3 [3] (A431 Xenograft model, 100 MPK); 55.61% with pStat3 [3] (A549 Xenograft model, 10 MPK); 60.66% with pStat3 [3] (A549 Xenograft model, 30 MPK); 65.28% with pStat3 [3] (A549 Xenograft model, 100 MPK); 76.56% with pStat3 [3] (A549 Xenograft model, 150 MPK); 66% in the data set with pStat3 [3] (B16F10 model, 30 MPK). Moreover, the “PBMCs % pStat3 inhibition” value with pStat3 [3] (B16F10 model, 100 MPK) is recorded as 73%. Further, the “% pSTAT3 inhibition in PBMCs (MTD study)” value in the data set on pStat3 [3] (at 100 MPK) worked out at 84% at. The “Tumors % pStat3 inhibition” value is given as 44.3% with pStat3 [4] (A431 Xenograft model, 100 MPK); 44.46% in the data set on pStat3 [4] (A549 Xenograft model, 10 MPK); 48.92% in the data set on pStat3 [4] (A549 Xenograft model, 30 MPK); 61.51% in the data set on pStat3 [4] (A549 Xenograft model, 100 MPK); 57.08% in the data set with pStat3 [4] (A549 Xenograft model, 150 MPK). In addition, the “% pSTAT3 inhib. (tumour)” value amounted to 45% with pStat3 [4] (Efficacy - A431 at 100 MPK) and 62% at with pStat3 [4] (Efficacy - A549, at 100 MPK). The good tolerance entry in [5] (athymic, 14 days) was “up to 250 MPK”. Further, the MTD in data set [5] was determined as 250 MPK.
